For one data set, the system named is leucocytes (WBC). Briefly: Effect on mice to which cyclophosphamide (CPA) was intraperitoneally administered: blood inspection, WBC. It counts as in vivo, male C3H/HeN mice. To be noted: for WBC, mean value ± S.D.: 400 mg/kg of CPA alone i.p. once on day zero. The method, then:
(§1) Several groups each consisting of 10 male C3H/HeN mice of 8 weeks old were prepared. For the first group, 0.2 ml of physiological saline was subcutaneously administered for consecutive 12 days from 2 days before the examination to the 9th day of the examination. For the second group, FTS substance was subcutaneously administered once a day in an amount of 100 iig/0.2 ml for consecutive 12 days. For the third group, CPA was intraperitoneally administered in an amount of 400 mg/kg once on the zero day of the examination. For the fourth group, an administration schedule combining the second group with the third group was applied to the mice. For the fifth group, CPA was intraperitoneally administered in an amount 200 mg/kg once on the zero day of the examination. For the sixth group, an administration schedule combining the second group with the fifth group was applied to the mice. For the seventh group, CPA was intraperitoneally administered in an amount of 100 mg/kg once on the zero day of the examination. For the eighth group, an administration schedule combining the second group with the seventh group to the mice. During the examination, blood was collected by cutting axillary artery on the days of examination (0, 3rd, 5th, 7th, 10th and 14th days) and subjected to a blood inspection to measure the number of leucocytes (WBC), the number of erythrocytes (RBC), the number of reticulocytes (RET), the number of platelets (PLT), the number of hemoglobin (HGB), hematocrit value (HCT), a mean corpuscular volume, a mean corpuscular hemoglobin and a mean corpuscular hemoglobin concentration.

The test system of the next data set is platelets (PLT). Briefly: Effect on mice to which CPA was intraperitoneally administered: blood inspection, PLT. It counts as in vivo, male C3H/HeN mice. The procedure:
as §1

Data set [1] can be described thus: Effect on mice to which CPA was intraperitoneally administered: body weight. It is filed as in vivo, male C3H/HeN mice. To be noted: CPA alone. The method, then: as §1, with “During the examination, blood was collected by cutting axillary artery on the days of examination (0, 3rd, 5th, 7th, 10th and 14th days) and subjected to a blood inspection to measure the number of leucocytes (WBC), the number of erythrocytes (RBC), the number of reticulocytes (RET), the number of platelets (PLT), the number of hemoglobin (HGB), hematocrit value (HCT), a mean corpuscular volume, a mean corpuscular hemoglobin and a mean corpuscular hemoglobin concentration.” left out

The next data set has as its system reticulocytes (RET). Nature of the data set: Effect on mice to which CPA was intraperitoneally administered: blood inspection, RET. It is filed as in vivo, male C3H/HeN mice. The procedure: as §1, with “During the examination, blood was collected by cutting axillary artery on the days of examination (0, 3rd, 5th, 7th, 10th and 14th days) and subjected to a blood inspection to measure the number of leucocytes (WBC), the number of erythrocytes (RBC), the number of reticulocytes (RET), the number of platelets (PLT), the number of hemoglobin (HGB), hematocrit value (HCT), a mean corpuscular volume, a mean corpuscular hemoglobin and a mean corpuscular hemoglobin concentration.” left out

Data set [2] relates to leucocytes in peripheral blood. Briefly: Effect on mice to which MMC was intraperitoneally administered: leucocyte count. It counts as in vivo, female ICR/JCL mice. To be noted: MMC alone, 20 µg/0.1 ml i.p. once a day for 10 days. The procedure:
Four groups each consisting of 6 female ICR/JCL mice of 5 weeks old were treated as follows: For the first group, 0.1 ml of physiological saline was intraperitoneally administered to the mice for consecutive 12 days. For the second group, FTS substance was subcutaneously administered once a day in an amount of 100 u.g for consecutive 12 days. For the third group, MMC was intraperitoneally administered once a day in an amount of 20 µg/0.1 ml for 10 days from the zero day to the 9th day of the experiment. For the fourth group, FTS substance was subcutaneously administered to the mice once a day in an amount of 100 µg for consecutive 12 days from 2 days before the administration of MMC, and for 10 days from the […] after the administration of FTS substance MMC was intraperitoneally administered once a day in an amount of 20 u.g/0.1 ml. After the administration of the anti-cancer agent, blood was collected on alternate days from oculus vein and the numbr of leucocytes in the blood was counted.

The subject of another data set is ddy strain male mice. Briefly: Toxicity test in mice, repeated subcutaneous administration. It counts as in vivo. The conditions noted are these: for toxicity: five ddy strain male mice of 5 weeks old. The text has this:
(§2) Thus, the medicament of the present invention is a safe medicament of extremely low toxicity and can be administered for a long period of time.

A further data set relates to Wistar rats. Nature of the data set: Toxicity test in rats, repeated subcutaneous administration. It counts as in vivo. To be noted: 30 mg/kg s.c. for consecutive 21 days.
Source text: as §2

[3] abbreviates: 7th day, 400mg/kg of CPA alone i.p. once on day zero.

SMILES strings stand for the structures. Square brackets hold non-standard residues; d marks the D form. Peptide text beside a SMILES is read from it. pGlu = O=C1CC[C@@H](C(=O)O)N1

As to `O=P1(N(CCCl)CCCl)NCCCO1` (stereo not drawn) [CPA, cyclophosphamide], the entries for the “WBC, mean value ± S.D.” value in the data set with leucocytes (WBC) (3rd day) and with leucocytes (WBC) (5th day) were 11.6±2.1 x 10^2/mm^3 and 4.2±1.0 x 10^2/mm^3, respectively. In addition, the WBC change entry in the data set with leucocytes (WBC) (CPA alone 400 mg/kg, 200 mg/kg or 100 mg/kg, 3rd, 5th and 7th day, 5th day the minimum) was “considerably decreased”. Besides, the PLT change result in the data set on platelets (PLT) (400 mg/kg and 200 mg/kg of CPA, 7th day the minimum, recovered to the normal range on the 10th day) is reported as “PLT was decreased”. Further, the PLT in the data set on platelets (PLT) (5th day, 400 mg/kg of CPA alone i.p. once on day zero) is given as 357±82 x 10^3/mm^3; in the data set on platelets (PLT) (setting [3]) it was 214±73 x 10^3/mm^3. The body weight change entry in data set [1] is listed as “decrease in body weight”. Further, the RET in the data set with reticulocytes (RET) (setting [3]) is reported as 27.2±5.0 0/00. The RET change entry with reticulocytes (RET) (CPA administered, 5th day the minimum) is reported as “RET was decreased”.
For `CO[C@@]12[C@H](COC(N)=O)C3=C(C(=O)C(C)=C(N)C3=O)N1C[C@@H]1N[C@@H]12` [MMC, mitomycine C], in data set [2], the “number of leucocytes, lowest level as % of the maximum normal range” value was “about 40%”.
`C[C@H](NC(=O)[C@@H]1CCC(=O)N1)C(=O)N[C@@H](CCCCN)C(=O)N[C@@H](CO)C(=O)N[C@@H](CCC(N)=O)C(=O)NCC(=O)NCC(=O)N[C@@H](CO)C(=O)N[C@@H](CC(N)=O)C(=O)O` [effective ingredient, pGlu-Ala-Lys-Ser-Gln-Gly-Gly-Ser-Asn] ([pGlu]AKSQGGSN-OH): the toxicity entry in the data set on ddy strain male mice (50 mg/kg s.c. for consecutive 14 days), in the data set on ddy strain male mice (100mg/kg s.c. for consecutive 14 days) and in the data set with Wistar rats (ten Wistar rats of 5 weeks old) was “No toxicity was observed” throughout. In addition, the “abnormal symptoms by external check” value in the data set on ddy strain male mice (100 mg/kg s.c. every day for consecutive 14 days, mice) is given as “no abnormal symptom was found”. Besides, the “abnormal symptoms in external behavior observation, biochemical diagnosis of sera and pathological anatomy” value in the data set on Wistar rats (rats) is recorded as “no abnormal symptom was found”.

These data come from EP0425828A2, “Facteur thymique sérique for prevention and remedy of disorders of decrease in the number of blood corpuscles” (MITSUI TOATSU CHEMICALS, Inc., priority 1989, dated 1991).
